Assay results reported in the supplement of paper PMC10307832.

Experiments:
Assay in all cases: relative viability (nuclei count vs DMSO), 5 days (fraction); higher = more cells survive
XMD13-2 + Palbociclib = compound: C1CC1C(=O)NC2=NNC3=C2C=CC(=C3)C4=CC(=CC=C4)C(=O)NC5CC5 [XMD13-2] + CC(=O)c1c(C)c2cnc(Nc3ccc(N4CCNCC4)cn3)nc2n(C2CCCC2)c1=O [Palbociclib] (partner 0.5 µM)
How it was run: (§1)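 Relative viability equals treated-well nuclei counts divided by vehicle-well nuclei counts. Counts came from 4× images of lung cancer cell lines grown in 1536-well plates for 5 days after pin-tool dosing on the day after seeding. Dosing used one drug alone or a fixed anchor-drug dose plus five library-drug doses (not always all listed) in √10 steps, and values are medians of duplicate plates.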

Dasatinib + Alpelisib = compound: Cc1nc(Nc2ncc(C(=O)Nc3c(C)cccc3Cl)s2)cc(N2CCN(CCO)CC2)n1 [Dasatinib] + Cc1nc(NC(=O)N2CCC[C@H]2C(N)=O)sc1-c1ccnc(C(C)(C)C(F)(F)F)c1 [Alpelisib] (partner 2 µM)
How it was run: as §1

Dasatinib + Tozasertib = compound: Cc1nc(Nc2ncc(C(=O)Nc3c(C)cccc3Cl)s2)cc(N2CCN(CCO)CC2)n1 [Dasatinib] + Cc1cc(Nc2cc(N3CCN(C)CC3)nc(Sc3ccc(NC(=O)C4CC4)cc3)n2)n[nH]1 [Tozasertib] (partner 0.1 µM)
How it was run: as §1

XMD13-2 + Lapatinib = compound: C1CC1C(=O)NC2=NNC3=C2C=CC(=C3)C4=CC(=CC=C4)C(=O)NC5CC5 [XMD13-2] + CS(=O)(=O)CCNCc1ccc(-c2ccc3ncnc(Nc4ccc(OCc5cccc(F)c5)c(Cl)c4)c3c2)o1 [Lapatinib] (partner 2 µM)
How it was run: as §1

Cell Line	relative viability (XMD13-2 + Palbociclib; first compound 0.05 µM)	relative viability (XMD13-2 + Palbociclib; first compound 0.1581 µM)	relative viability (XMD13-2 + Palbociclib; first compound 0.5 µM)	relative viability (XMD13-2 + Palbociclib; first compound 1.581 µM)	relative viability (XMD13-2 + Palbociclib; first compound 5 µM)	relative viability (Dasatinib + Alpelisib; first compound 0.005 µM)	relative viability (Dasatinib + Alpelisib; first compound 0.01581 µM)	relative viability (Dasatinib + Alpelisib; first compound 0.05 µM)	relative viability (Dasatinib + Alpelisib; first compound 0.1581 µM)	relative viability (Dasatinib + Alpelisib; first compound 0.5 µM)	relative viability (Dasatinib + Tozasertib; first compound 0.005 µM)	relative viability (Dasatinib + Tozasertib; first compound 0.01581 µM)	relative viability (Dasatinib + Tozasertib; first compound 0.05 µM)	relative viability (Dasatinib + Tozasertib; first compound 0.1581 µM)	relative viability (Dasatinib + Tozasertib; first compound 0.5 µM)	relative viability (XMD13-2 + Lapatinib; first compound 0.05 µM)	relative viability (XMD13-2 + Lapatinib; first compound 0.1581 µM)	relative viability (XMD13-2 + Lapatinib; first compound 0.5 µM)	relative viability (XMD13-2 + Lapatinib; first compound 1.581 µM)	relative viability (XMD13-2 + Lapatinib; first compound 5 µM)
LC-2-ad	0.504	0.477	0.538	0.486	0.47	0.854	0.703	0.699	0.276	0.169	0.421	0.366	0.315	0.271	0.249	1.01	1.06	0.971	0.885	0.855
NCI-H596						0.387	0.436	0.378	0.326	0.221	0.766	0.671	0.87	0.507	0.393	1.1	0.942	1.22	0.989	1.17
NCI-H1437	0.297	0.299	0.335	0.327	0.255	1.03	0.893	1.03	0.735	0.513	0.431	0.38	0.394	0.32	0.314	0.911	0.849	0.858	0.793	0.683
NCI-H727	0.677	0.691	0.758	0.601	0.627	0.453	0.375	0.397	0.219	0.234	0.607	0.523	0.606	0.379	0.185	0.836	0.844	1.06	1.01	0.949
PC-3 [JPC-3]	0.558	0.508	0.571		0.532	1.08	1.09	1.12	0.966	0.477	0.895	0.859	0.976	0.799	0.579	0.453	0.467	0.437	0.498	0.426
SW 1573	0.442	0.366	0.717	0.371	0.287	0.596	0.524	0.438	0.302	0.241	0.174	0.189	0.193	0.128	0.131	1.13	1.2	1.28	1.06	1.1
NCI-H2228	1.03	0.779	0.724	0.709	0.818	0.693	0.769	0.581	0.263	0.268	0.231	0.232	0.216	0.185	0.184	1.42	1.19	1.05	1.23	0.426
NCI-H1650	0.29	0.399	0.385	0.332	0.312						0.356	0.302	0.342	0.233	0.153	0.865	0.674	0.809	0.677	0.227
